In one data set the test system is OCI-AML2 cells. The data set is described as follows: Radioactive glucose uptake assay. It counts as cell-based. The note with it: concentrations up to 4.0 μM, 16 hours. On the procedure:
(A) OCI-AML2 cells were incubated with increasing concentrations of flubendazole for 16 h and the uptake of 3H-deoxy-D-glucose was measured as in the materials and methods. Data represent the mean±SD glucose uptake. A representative experiment is shown.
The effect of flubendazole on the uptake of 2-deoxy-D-glucose in OCI-AML2 cells was performed using a radioactive glucose uptake assay as described by Wood et al^27. […] Uptake of 2-deoxy-D-glucose was initiated by the addition of 10 μM 2-deoxy-D-glucose and 1 μCi/mL 2-[^3H]deoxy-D-glucose in the HEPES-buffered saline solution at room temperature. After 5 min of incubation, 2-deoxy-D-glucose uptake was terminated by rinsing the cells three times with a 25 mM ice-cold glucose solution, followed by cell disruption with 0.05 N NaOH. Protein concentration was measured by the modified Bradford protein assay and cell-associated radioactivity was determined by scintillation counting. The mean counts per minute are expressed as picomoles/min/mg protein.

A further data set can be described thus: in vitro. It counts as cell-based. The note with it: human. As for the experimental part: (§1) (E) HeLa cells were grown to confluence and a wound created on the cell monolayer using a 200 μL pipette. Cells were treated with increasing concentrations of flubendazole and imaged every 2 h for 8 h. Wound healing was measured as described in the materials and methods. Representative data is shown and are presented as % wound recovery. *p<0.05 (ANOVA, bonferroni post hoc).
(§2) HeLa cell migration was measured as previously described^30. Briefly, HeLa cells were seeded in 4 well chambers and grown to confluence. A wound was inflicted to the monolayer using a 200 μL pipette tip. Wells were washed with media to remove any detached cells and media containing either 0 μM, 0.5 μM or 1.0 μM flubendazole was then added and incubated at 37° C. for 8 hours. Images were captured using a Zeiss Axiovert 200M microscope every 2 hours. These images were quantified using Image J software, which outlined and enumerated the number of pixels in the wound area. Cell migration of HeLa cells was recorded and calculated as a percent recovery of wound area.

A further data set deals with HeLa cells. As to the kind of experiment: in vitro. The format is cell-based. The following applies: HeLa, 0.5 or 1.0 μM, 8 hours. On the procedure: as §1, §2
For another data set, the system named is KB-4.0-HTI. As to the kind of experiment: MTS assay, KB-4.0-HTI (α-tubulin mutant). It counts as cell-based. On the procedure:
(§3) Next, whether microtubule inhibition was functionally important for flubendazole's cytotoxicity was determined.
(§4) Leukemia (U937, MDAY, CEM, CEM-VBL) and solid tumor cell lines (PPC-1, HeLa) were cultured in RPMI 1640 medium. The epidermoid carcinoma cell lines KB-3-1 and KB-4.0-HTI^23 were grown in Dulbecco's Modified Eagle Medium. The lung carcinoma cell lines A549 and A549.EpoB40 were grown in RPMI with the latter supplemented with 20% fetal calf serum (FCS), and 40 nM epothilone B.^24 Leukemia cell lines OCI-AML2, CEM, and NB4 and all the myeloma cell lines (OPM2, KMS11, JJN3 LP1, H929, L1, KMS12, KSM18 and OCI My5) were maintained in Iscove's Modified Dulbecco's Medium (IMDM). TEX cells were maintained in IMDM, 15% FCS, 1% penicillin-streptomycin, 2 mM L-glutamine, 20 ng/mL SCF, 2 ng/mL IL-3. Unless otherwise noted, all media were supplemented with 10% FCS, 100 units/mL of streptomycin and 100 μg/mL of penicillin (all from Hyclone, Logan, Utah). Cells were incubated in a humidified air atmosphere containing 5% CO2 at 37° C.
(§5) Cell growth and viability was measured using the 3-(4,5-dimethylthiazol-2-yl)-5-(3-carboxymethoxyphenyl)-2-(4-sulfophenyl)-2H-tetrazolium inner salt (MTS) reduction assay (Promega, Madison, Wis.) according to the manufacture's protocol and as previously described^25. […] Optical density (OD) was measured at 490 nm.
(In general: Tetrazolium assays rely on reduction of a dye to a coloured formazan, in cell work by metabolically active cells.)

The test system of another data set is A549. The data set is described as follows: MTS assay, A549. It counts as cell-based. The note with it: Homo sapiens, 3 replicates. On the procedure: as §3, §4, §5
In a further data set the test system is CEM-VBL. The data set is described as follows: MTS assay, CEM-VBL (Pgp over-expressing). It counts as cell-based. On the procedure:
Over-expression of P-glycoprotein (Pgp, MDR1) renders cells resistant to vinca alkaloid microtubule inhibitors.^43 Therefore, the effects of Pgp over-expression on flubendazole's cytotoxicity were tested. CEM-VBL cells over-express Pgp,^44 which was confirmed with a rhodamine dye exclusion assay. CEM wild type and CEM-VBL cells were treated with increasing concentrations of flubendazole or vinblastine and cell viability measured by the MTS assay (Table 1). […] In contrast, CEM-VBL cells over-expressing Pgp were resistant to vinblastine at concentrations greater than 5.0 μM (Table 1).
as §4
Cell growth and viability was measured using the 3-(4,5-dimethylthiazol-2-yl)-5-(3-carboxymethoxyphenyl)-2-(4-sulfophenyl)-2H-tetrazolium inner salt (MTS) reduction assay (Promega, Madison, Wis.) according to the manufacture's protocol and as previously described^25. Cells were seeded in 96 well plates and treated with drug for 72 h. Optical density (OD) was measured at 490 nm.

For data set [1] the following is noted: chickens, up to 180 mg/kg daily for 7 days; cited from earlier work.
The conditions of data set [2]: cited from earlier work.

Data on one molecule can be found in patent US20120202840A1, “Use of Flubendazole and Vinca Alkaloids for Treatment of Hematological Diseases” (priority 2009, published 2012).

The structures appear in SMILES notation. Entries after “also recorded” stand apart in the source; their conditions may differ. Like-named read-outs stand apart in the source and are kept apart here. Where only a bound is given, the exact number is not on record here.

In the case of `COC(=O)Nc1nc2ccc(C(=O)c3ccc(F)cc3)cc2[nH]1` [flubendazole], in the data set with OCI-AML2 cells, the “uptake of 3H-deoxy-D-glucose” value is recorded as “did not alter glucose uptake”. Besides, the viability (usually the share of living cells, or the viability signal relative to a control) at 8 h in the data set “in vitro” is greater than 89%. Also, in the data set on HeLa cells, the “cell migration / wound healing” value is “impaired cell migration and delayed wound healing”. Besides, the IC50 (as a rule, the point on the concentration scale where inhibition reaches its midpoint) in the data set with KB-4.0-HTI (KB-4.0-HTI, MTS assay, 3 replicates) stood at 12.5 ± 1.8 µM; in the data set on A549, 4.1 ± 1.3 µM; with CEM-VBL (CEM-VBL, 3 replicates), 2.7 ± 1.2 µM. In the data set on KB-4.0-HTI (ratio of IC50 values of Table 1), the “IC50 higher in KB-4.0-HTI than in KB-3-1 wild type cells” value turned out to be 7 fold. The “sensitivity of CEM-VBL cells compared to wild type controls” value in the data set with CEM-VBL (Pgp over-expression) was “fully sensitive”. The toxicity entry was “developed anemia and reduction of red cells in the spleen” in data set [1]; “without toxicity” in data set [2] (healthy volunteers, single oral doses up to 2000 mg); “no toxicity from the drug was reported” in data set [2] (humans, 40-50 mg/kg/day for 10 days, neurocysticercosis). Further, in data set [2] (patients, up to 50 mg/kg orally daily for up to 24 months), the adverse effects result was “without serious adverse effects; also recorded: without adverse effect”.
